From patent US20240393292A1, “ALLERGY ANTIGEN AND EPITOPE THEREOF” (HOYU CO., LTD., priority 2019, published 2024)

System: IgE antibody present in the serum of a wheat-allergic patient
Assay: Wheat epitope mapping (1): peptide array of overlapping 15-amino-acid peptides, chemiluminescence
Format: binding, human
Details: bound = chemiluminescence value minus N2nd value of 5 non-wheat-allergic subjects at least 35,000; serum of 49 patients
Experimental: Epitope mapping was carried out using a library of overlapping peptides (length: 15 amino acids) corresponding to the amino acid sequences identified as allergy components of wheat. Specifically, the library of overlapping peptides was prepared on the basis of the amino acid sequences of SEQ ID NOs: 2, 4, 6, 8, 10, 12, 14, 16, 18, 20, 22, 24, 26 and 28.
The peptides to be synthesized were shifted by 10 amino acids.
For preparation of peptide arrays, the Intavis CelluSpots™ technique was used. Specifically, the peptide arrays were prepared by the following procedure: (1) synthesizing peptides of interest on amino-modified cellulose disks using an automated chemical synthesis apparatus (Intavis MultiPep RS), (2) dissolving the amino-modified cellulose disks to obtain a cellulose-bound peptide solution, and (3) spotting the cellulose-bound peptides onto coated glass slides. The details of each procedure are as described below.
Peptide synthesis was carried out in incremental steps through 9-fluorenylmethoxycarbonyl (Fmoc) chemical reaction on amino-modified cellulose disks in 384-well synthesis plates. Specifically, amino acids in which a Fmoc group is bonded to an amino group were activated in a solution of N,N′-diisopropylcarbodiimide (DIC) and 1-hydroxybenzotriazole (HOBt) in dimethylformamide (DMF) and added dropwise to the cellulose disks so that the Fmoc group-bound amino acids were bound to the amino groups on the cellulose disks (coupling). Unreacted amino groups were capped with acetic anhydride and washed with DMF. Furthermore, the Fmoc groups were eliminated from the amino groups of the amino acids bound to the amino groups on the cellulose disks by treatment with piperidine and washing with DMF. The amino acids bound to the amino groups on the cellulose disks were repetitively subjected to the coupling, the capping, and the Fmoc group elimination described above to elongate the amino terminus for peptide synthesis.
The peptides-bound cellulose disks of interest obtained above in the subsection titled “(1) Synthesis of peptide” were transferred to 96-well plates and treated with a side chain deprotection mixed solution of trifluoroacetic acid (TFA), dichloromethane, triisopropylsilane (TIPS), and water for deprotection of amino acid side chains. Then, the deprotected cellulose-bound peptides were dissolved in a mixed solution of TFA, […] acid (TFMSA), TIPS, and water and precipitated in […] methyl ether (TBME), and the precipitate was resuspended in dimethyl sulfoxide (DMSO) and mixed with a mixed solution of NaCl, sodium citrate, and water to obtain a peptide solution for slide spotting.
The peptide solution for slide spotting obtained above in the subsection titled “(2) Dissolution of amino-modified cellulose disk” was spotted onto Intavis CelluSpots™ slides using Intavis Slide Spotting Robot, and the slides were dried to prepare peptide arrays.
The presence or absence of binding, to each peptide fragment, of an IgE antibody present in the serum of a wheat-allergic patient was measured through antigen-antibody reaction using the peptide arrays. […]

Substance | binding of patient-specific IgE antibodies to 15-residue peptide
SEQ ID NO: 1508: common 15-residue epitope sequence of polypeptide (E23) (QVPLVQQQQFLGQQQ; REGION 1..15: note = epitope) | confirmed to bind
SEQ ID NO: 1566: common 15-residue epitope sequence of polypeptide (E24) (PQQPQQPFPQTQQPQ; REGION 1..15: note = epitope) | confirmed to bind
SEQ ID NO: 1598: common 15-residue epitope sequence of polypeptide (E25) (PQQPAQLEAIRSLVL; REGION 1..15: note = epitope) | confirmed to bind
SEQ ID NO: 1608: common 15-residue epitope sequence of polypeptide (E26) (VGYNPDKVPFVPISG; REGION 1..15: note = epitope) | confirmed to bind
SEQ ID NO: 1685: common 15-residue epitope sequence of polypeptide (E27) (PAKEAANFTSQVIIM; REGION 1..15: note = epitope) | confirmed to bind
SEQ ID NO: 1753: common 15-residue epitope sequence of polypeptide (E28) (VKEVSSYLKKVGYNP; REGION 1..15: note = epitope) | confirmed to bind
SEQ ID NO: 1789: common 15-residue epitope sequence of polypeptide (E29) (SGKELEALPKFLKNG; REGION 1..15: note = epitope) | confirmed to bind
SEQ ID NO: 1836: common 15-residue epitope sequence of polypeptide (E30) (VIAEYTVRTLQRTVP; REGION 1..15: note = epitope) | confirmed to bind
SEQ ID NO: 1895: common 15-residue epitope sequence of polypeptide (E31) (QVPLVQQQQFPGQQQ; REGION 1..15: note = epitope) | confirmed to bind
SEQ ID NO: 1977: common 15-residue epitope sequence of polypeptide (E32) (DPTGAKVTKAAIKKK; REGION 1..15: note = epitope) | confirmed to bind
SEQ ID NO: 2004: common 15-residue epitope sequence of polypeptide (E33) (STGTIGKRFASINVE; REGION 1..15: note = epitope) | confirmed to bind
SEQ ID NO: 2027: common 15-residue epitope sequence of polypeptide (E34) (TPGALQYLSGVILFE; REGION 1..15: note = epitope) | confirmed to bind
SEQ ID NO: 2068: common 15-residue epitope sequence of polypeptide (E35) (PPYCTIAPFGIFGTN; REGION 1..15: note = epitope) | confirmed to bind
SEQ ID NO: 2154: common 15-residue epitope sequence of polypeptide (E36) (YSQPQQPISQQQQQQ; REGION 1..15: note = epitope) | confirmed to bind
SEQ ID NO: 2217: common 15-residue epitope sequence of polypeptide (E37) (VSRLLRGIRNYRVAI; REGION 1..15: note = epitope) | confirmed to bind
SEQ ID NO: 2265: common 15-residue epitope sequence of polypeptide (E38) (LGGIDKRVIERFEKE; REGION 1..15: note = epitope) | confirmed to bind
SEQ ID NO: 2309: common 15-residue epitope sequence of polypeptide (E39) (QSRYDAIRAIIYSIV; REGION 1..15: note = epitope) | confirmed to bind
SEQ ID NO: 2342: common 15-residue epitope sequence of polypeptide (E40) (HDIDRCAYVTEIVLA; REGION 1..15: note = epitope) | confirmed to bind
SEQ ID NO: 2419: common 15-residue epitope sequence of polypeptide (E41) (QSTLKAWSGKTENEE; REGION 1..15: note = epitope) | confirmed to bind
SEQ ID NO: 2491: common 15-residue epitope sequence of polypeptide (E42) (SSQVSFQPSQLNPQA; REGION 1..15: note = epitope) | confirmed to bind
SEQ ID NO: 2545: common 15-residue epitope sequence of polypeptide (E43) (LQQSTYQLVQQLCCQ; REGION 1..15: note = epitope) | confirmed to bind
SEQ ID NO: 2613: common 15-residue epitope sequence of polypeptide (E44) (SAKPLLASLSKRVLT; REGION 1..15: note = epitope) | confirmed to bind
SEQ ID NO: 2631: common 15-residue epitope sequence of polypeptide (E45) (RFEKEAAEMNKRSFK; REGION 1..15: note = epitope) | confirmed to bind
SEQ ID NO: 2674: common 15-residue epitope sequence of polypeptide (E46) (YKGPTLLEALDQINE; REGION 1..15: note = epitope) | confirmed to bind
SEQ ID NO: 2701: common 15-residue epitope sequence of polypeptide (E47) (VYKIGGIGTVPVGRV; REGION 1..15: note = epitope) | confirmed to bind
SEQ ID NO: 2774: common 15-residue epitope sequence of polypeptide (E48) (FLKNGDAGIVKMIPT; REGION 1..15: note = epitope) | confirmed to bind
SEQ ID NO: 2809: common 15-residue epitope sequence of polypeptide (E49) (VYSANTHRSKWFRVV; REGION 1..15: note = epitope) | confirmed to bind
SEQ ID NO: 2830: common 15-residue epitope sequence of polypeptide (E50) (YIVVEGRDGYFEMAC; REGION 1..15: note = epitope) | confirmed to bind
